Results taken from the supplement of paper PMC8671470.
± gives the standard deviation of the averaged measurements.

Assays:
Settings in all cases: 72 h
[1] = test system: K-562
How it was run: (§1)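 In 384-well plates holding acoustically pre-printed compounds at five tenfold doses from 1 to 10,000 nM, in duplicate, fifteen myeloid leukaemia cell lines were grown in RPMI 1640 for 72 h at 37 °C with 5% CO2. Luminescent ATP viability was scaled between vehicle and a positive control at 10 µM. The IC50 was then taken from log-logistic dose–response fits with four parameters.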

[2] = test system: KU-812
How it was run: as §1

[3] = test system: MV4-11
How it was run: as §1

[4] = test system: Mono-Mac-6
How it was run: as §1

[5] = test system: NOMO-1
How it was run: as §1

[6] = test system: HL-60; experiment: cell viability (% survival relative to DMSO control); higher = less cytotoxic
How it was run: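 In 384-well plates, the full library was rescreened in duplicate on HL-60 cells in RPMI 1640 with 10% FBS, at 1–10,000 nM in five tenfold concentrations, for 72 h at 37 °C, 5% CO2. Each run also held DMSO or 100 nM of one of three metabolic inhibitors. Viability was measured by CellTiter-Glo and normalised to DMSO wells and to wells with proteasome inhibitor, present at 10 μM. Any area under the curve comes from four-parameter log-logistic fitting with drc and PharmacoGx.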

[7] = test system: BV-173; experiment: cell viability (% survival relative to DMSO control, bortezomib = 0%); higher = less cytotoxic
How it was run: (§2)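 Percent survival is reported as the mean of duplicate wells. Cells from 10 AML and 5 CML lines were plated in 384-well plates containing compounds at 1, 10, 100, 1000 or 10000 nM and kept for 72 h at 37 °C in 5% CO2. Readout used CellTiter-Glo luminescence, scaled so that vehicle equals 100% and a 10 µM positive control equals 0%.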

[8] = test system: HEL; experiment: as above
How it was run: as §2

[9] = test system: HL-60; experiment: as above
How it was run: as §2

[10] = test system: K-562; experiment: as above
How it was run: as §2

[11] = test system: KCL-22; experiment: as above
How it was run: as §2

[12] = test system: KG-1; experiment: as above
How it was run: as §2

[13] = test system: KU-812; experiment: as above
How it was run: as §2

[14] = test system: LAMA-84; experiment: as above
How it was run: as §2

[15] = test system: ML-2; experiment: as above
How it was run: as §2

[16] = test system: MOLM-13; experiment: as above
How it was run: as §2

[17] = test system: MV4-11; experiment: as above
How it was run: as §2

[18] = test system: Mono-Mac-6; experiment: as above
How it was run: as §2

[19] = test system: NOMO-1; experiment: as above
How it was run: as §2

[20] = test system: SHI-1; experiment: as above
How it was run: as §2

[21] = test system: THP-1; experiment: as above
How it was run: as §2

N/C(=N\CCCC(N)C(=O)O)N[N+](=O)[O-] [L-NNA]
Settings	IC50 (cell viability) [µM]
[1]	> 10
[2]	> 10
[3]	> 10
[4]	> 10
[5]	> 10

cell viability [%], [6]
Settings	0.001 µM	0.01 µM	0.1 µM	1 µM	10 µM
co-treatment: AZD3965 100 nM	104 ± 2.6	105 ± 4.7	106 ± 8.5	98.7 ± 2.9	101.2 ± 0.57
co-treatment: DMSO vehicle	102.6 ± 0.88	99.86 ± 0.89	105 ± 1.6	99.1 ± 3.6	102 ± 7
co-treatment: GSK2194069 100 nM	102 ± 4.6	99.1 ± 1.9	90.4 ± 40	99.9 ± 4	101 ± 2.3
co-treatment: pictilisib 100 nM	97.6 ± 1.3	95.8 ± 8.7	102 ± 14	96.12 ± 0.83	100 ± 14

cell viability [%]
Settings	1 nM	10 nM	100 nM	1000 nM	10000 nM
[7]	96.5	103	105	88.9	96.1
[8]	103	98.5	105	91.6	95.6
[9]	96.1	75.4	114	92.4	126
[10]	104	94.9	117	92.1	102
[11]	92.7	107	106	94.8	93.5
[12]	89.2	93.7	96.3	92.6	89.8
[13]	88.3	92.6	102	87.4	91.8
[14]	101	105	100	90.9	101
[15]	90.7	102	102	93.7	94.5
[16]	102	73.6	92.4	98	88.4
[17]	96.4	103	106	103	107
[18]	89.4	95.8	92.1	84.2	91
[19]	96.4	99.8	99.4	91.5	92.2
[20]	98.8	95.6	109	96.1	96.7
[21]	98.1	105	96.9	93	91.1

CN(C)c1cc(NC(=O)CNC(C)(C)C)c(O)c2c1C[C@H]1C[C@H]3[C@H](N(C)C)C(=O)C(C(N)=O)C(=O)[C@@]3(O)C(=O)C1C2=O (stereo not given in full) [Tigecycline]
Settings	IC50 (cell viability) [µM]
[1]	> 10
[2]	> 10
[3]	> 10
[4]	> 10
[5]	> 10

cell viability [%], [6]
Settings	0.001 µM	0.01 µM	0.1 µM	1 µM	10 µM
co-treatment: AZD3965 100 nM	103 ± 5.2	98.51 ± 0.53	106 ± 2.4	103 ± 5	101 ± 3.3
co-treatment: DMSO vehicle	102 ± 6.9	102.7 ± 0.82	105 ± 2.6	101.5 ± 0.45	105 ± 3.9
co-treatment: GSK2194069 100 nM	101.8 ± 0.14	96.3 ± 14	101 ± 6	96.7 ± 1.9	103 ± 11
co-treatment: pictilisib 100 nM	97.3 ± 1.4	100 ± 1.1	103.3 ± 0.24	101.8 ± 0.58	102 ± 11

cell viability [%]
Settings	1 nM	10 nM	100 nM	1000 nM	10000 nM
[7]	119	107	97.4	84	83.4
[8]	110	92.4	101	99.7	71.6
[9]	153	81.2	69.6	110	75.6
[10]	102	93.4	92.1	90.6	83.4
[11]	108	95	96.4	94.6	79.4
[12]	111	82.5	104	94.8	66.5
[13]	102	97	95.8	94.4	86.8
[14]	105	94.3	105	102	90
[15]	118	93.4	90.8	96.4	63
[16]	119	84	90.8	96	88.9
[17]	117	89.3	101	88.3	93.2
[18]	112	108	100	105	93.7
[19]	106	97.7	87	101	99.3
[20]	113	97.9	97.1	115	93.4
[21]	107	100	104	105	105

CCC(=O)N1CCN(c2ccc(-n3c(=O)ccc4cnc5ccc(-c6cnc7ccccc7c6)cc5c43)cc2C(F)(F)F)CC1 [Torin1]
Settings	IC50 (cell viability) [µM]
[1]	0.327
[2]	0.191
[3]	0.486
[4]	0.333
[5]	0.672

cell viability [%], [6]
Settings	0.001 µM	0.01 µM	0.1 µM	1 µM	10 µM
co-treatment: AZD3965 100 nM	105 ± 6.4	100 ± 18	91.3 ± 18	99 ± 2.9	51.4 ± 2.1
co-treatment: DMSO vehicle	97.9 ± 4.5	102.1 ± 0.92	93.4 ± 14	101 ± 3.5	65.4 ± 8.4
co-treatment: GSK2194069 100 nM	106 ± 8	106 ± 1.1	92.1 ± 16	104.4 ± 0.71	72.7 ± 3.2
co-treatment: pictilisib 100 nM	100 ± 6.4	104 ± 1.5	80 ± 22	85.8 ± 5.2	65.5 ± 3.1

cell viability [%]
Settings	1 nM	10 nM	100 nM	1000 nM	10000 nM
[7]	111	80.7	89.1	20.9	8.44
[8]	109	105	99.3	36.4	14.7
[9]	73.2	95.1	85.7	65.3	24.6
[10]	108	87	85.9	24.7	11.7
[11]	102	110	87.8	10.9	8.17
[12]	94.9	89.7	81.5	29.1	26
[13]	97.7	87.1	73.1	24.4	20.1
[14]	105	93.1	80.2	28.8	21.8
[15]	96.1	99.7	91.5	46.5	33.5
[16]	93	77.8	70	16.2	12.9
[17]	88.9	95.7	90.8	26.1	11.1
[18]	92.2	85.5	75.8	35.7	21.7
[19]	109	96.2	93.4	47.5	37.1
[20]	89.8	92	80.2	48.9	69.4
[21]	104	98.5	96.9	58.9	33.9

O=C1O/C(=C/Br)CCC1c1cccc2ccccc12 (stereo not given) [Bromoenol Lactone]
Settings	IC50 (cell viability) [µM]
[1]	9.03
[2]	5.18
[3]	5.73
[4]	> 10
[5]	3.55

cell viability [%], [6]
Settings	0.001 µM	0.01 µM	0.1 µM	1 µM	10 µM
co-treatment: AZD3965 100 nM	95.1 ± 10	97 ± 6.7	98.2 ± 5.9	96.796 ± 0.025	93.5 ± 3.1
co-treatment: DMSO vehicle	100 ± 2.4	99.8 ± 7.1	100 ± 1.4	96.4 ± 5.3	87.9 ± 2.6
co-treatment: GSK2194069 100 nM	90.2 ± 14	92.4 ± 9.3	108 ± 7.8	89.2 ± 2.9	115 ± 20
co-treatment: pictilisib 100 nM	96.5 ± 35	106 ± 18	110 ± 9.4	101.3 ± 0.12	104 ± 13

cell viability [%]
Settings	1 nM	10 nM	100 nM	1000 nM	10000 nM
[7]	98.1	104	94.8	85.9	24.3
[8]	105	103	91.3	99.8	41.3
[9]	100	101	144	90.7	77.2
[10]	102	106	98.1	93.5	46.9
[11]	95.3	93.1	104	86.6	52.2
[12]	97.7	97.7	101	89.8	56.6
[13]	98.3	93.3	102	86.1	45.8
[14]	101	99.2	99.9	95.9	74
[15]	102	100	94.6	92.9	59.7
[16]	96.5	94	112	91.5	44.1
[17]	99	106	105	92.4	45.8
[18]	98.4	102	93.8	95.6	52.7
[19]	108	100	100	82.7	40.4
[20]	102	92.9	108	91.2	83.2
[21]	97.3	97.6	92.3	81.4	44.7

CCCCCCCCCCC[C@@H](C[C@@H]1OC(=O)[C@H]1CCCCCC)OC(=O)[C@H](CC(C)C)NC=O [Orlistat]
Settings	IC50 (cell viability) [µM]
[1]	> 10
[2]	> 10
[3]	> 10
[4]	> 10
[5]	> 10

cell viability [%], [6]
Settings	0.001 µM	0.01 µM	0.1 µM	1 µM	10 µM
co-treatment: AZD3965 100 nM	98.6 ± 3.3	99.5 ± 3.5	102 ± 4.7	94.9 ± 5.9	100 ± 1.6
co-treatment: DMSO vehicle	93.7 ± 0.7	105 ± 2.1	104 ± 3.7	98.57 ± 0.82	99.8 ± 2.4
co-treatment: GSK2194069 100 nM	94.4 ± 1.7	96.4 ± 6.2	109 ± 24	94.7 ± 3.8	77.7 ± 8.3
co-treatment: pictilisib 100 nM	99.1 ± 2.1	109 ± 6.4	95.6 ± 3.8	94.4 ± 7.5	90.5 ± 10

cell viability [%]
Settings	1 nM	10 nM	100 nM	1000 nM	10000 nM
[7]	86.3	92	79.9	87.5	82
[8]	102	107	95.3	101	90.8
[9]	122	105	108	106	98.7
[10]	118	85.1	88.2	103	103
[11]	105	87.9	90.2	97	86.9
[12]	96.2	99.6	96.4	100	53.3
[13]	98.3	92.1	96.4	98.5	89.6
[14]	101	103	93.9	93.7	94.4
[15]	93.6	101	93.6	88.6	86
[16]	140	104	87.9	65.3	95.2
[17]	107	97.2	71.6	109	79.8
[18]	114	91.1	97.7	103	87.7
[19]	101	95	96.6	106	96.5
[20]	101	102	106	108	102
[21]	97.5	99	85.2	95	94.6
